Test results taken from patent publication US11179348B2, “Combination comprising pterostilbene for the treatment of cancer” (FUNDACIÓN UNIVERSIDAD CATÓLICA DE VALENCIA SAN VICENTE …, priority 2015, dated 2021).
Marks after values point to notes of the source that are not given here.

Experiments:
[1] = tested on: B16-F1 cells; assay: Effect of Pter on B16-F1 cell growth or viability in vitro; format: cell-based, murine; settings: 15 μM Pter×60 min every 24 h
Description: FIG. 14. In vivo effect of Pter on tumor growth (A) and on corticosterone (B) and ACTH (C) levels in plasma of murine B16-F1 melanoma-bearing mice. Pter (30 mg/kg) was administered i.v. every 24 h for a period of 15 days, starting 3 days after tumor inoculation.
Human A2058, MeWo and MelJuso melanoma cells, and mouse AtT-20 pituitary corticotroph tumor cells were from the American Type Culture Collection (ATCC). Human HEMa-LP epidermal melanocytes were from Life Technologies (Grand Island, N.Y.). Human MDA-MB-231 (triple negative: ER−, PR−, HER2−) and MCF-7 (ER+, PR+, HER2−) breast adenocarcinoma, A549 lung adenocarcinoma (NSCLC), HepG2 hepatocellular carcinoma, LNCaP (AR+) and PC-3 (AR−) prostate adenocarcinoma, SK-OV-3 epithelial ovarian carcinoma, and HT-29 and Caco-2 colorectal carcinoma cells were from the American Type Culture Collection. Cells were grown in Dulbecco's modified Eagle's medium (DMEM) (Invitrogen, San Diego, Calif.), pH 7.4, supplemented with 10% heat-inactivated FCS (Biochrom KG, Berlin, Germany), 100 units/ml penicillin and 100 μg/ml streptomycin. […] Cell numbers were determined using a Coulter Counter (Coulter Electronic Inc., Miami, Fla.). […] Cellular viability was assessed as previously reported (Mena, S. et al. Clin Cancer Res 13, 2658-2666 (2007)), by measuring trypan blue exclusion and leakage of lactate dehydrogenase activity.

[2] = tested on: SK-OV-3 epithelial ovarian carcinoma; assay: In vivo growth of SK-OV-3 ovarian cancer xenografts; parameters: species or system human; settings: SK-OV-3, day 49
[3] = tested on: HT-29 cells; assay: GSH levels and glutathione- and oxidative stress-related enzyme activities in HT-29 cells growing in vivo; parameters: species or system human; settings: HT-29, in vivo Pter, day 21
Description: To measure enzyme activity, isolated tumor cells were homogenized in 0.1 M phosphate buffer (pH 7.2) at 4° C. GCL and GSS activities were measured as described previously (Obrador, E. et al. Hepatology 35, 74-81 (2002)). GPX (selenium dependent) activity was measured as described by Flohé and Gunzler (Flohe, L. & Gunzler, W. A. Methods Enzymol 105, 114-121 (1984)) using H2O2 as a substrate. GSR activity was determined as described by Akerboom and Sies (Akerboom, T. P. et al, Bull Eur Physiopathol Respir 17 Suppl, 221-227 (1981)). GGT activity was measured as described previously (Obrador, E. et al. Hepatology 35, 74-81 (2002)). GST activity was measured using an assay kit from Sigma. TXNRD activity, defined by the concentration of sodium-lipoate (disulfide) reduced to dehydrolipoate (dithiol) per milligram protein, was measured as previously described (Javvadi, P. et al. Cancer Res 70, 1941-1950 (2010)). SOD activity was measured as described by Flohé and Otting (Flohe, L. & Otting, F. Methods Enzymol 105, 93-104 (1984).) using 2 mM cyanide in the assay medium to distinguish mangano-type enzyme (SOD2) from the cuprozinc type (SOD1). CAT activity was analyzed as described by Aebi (Aebi, H. Methods Enzymol 105, 121-126 (1984)). NOX activity was measured by chemiluminescence following the methodology of Wind et al. (Wind, S. et al. Comparative pharmacology of chemically distinct NADPH oxidase inhibitors. Br J Pharmacol 161, 885-898 (2010)). Protein concentration was determined with the Pierce BCA protein assay (Fisher Scientific, Waltham, Mass.).
GSH, GSSG, NADP^+ and NADPH Determination.
GSH and GSSG were determined, following procedures previously described (Obrador, E. et al. PLoS One 9, e96466 (2014)), by LC/MS using the same equipment described above for pterostilbene determination. Cell processing was performed according to published methodology, where rapid N-ethylmaleimide derivatization was used to prevent GSH auto-oxidation (Asensi, M. et al. Anal Biochem 217, 323-328 (1994)). NADP^+ and NADPH were quantitated using an assay kit from Sigma (St. Louis, Mo.).
Isolation of Tumor Cells from Mouse Xenografts Using Enzymatic Digestion and a double Ficoll gradient.
To maximize the amount of isolated cells, avoiding the use of RFP-transfected cells and subsequent laser microdissection, an alternative methodology was set up. To maximize cell yield and viability the following combination of enzymes was used: collagenase III (200 U/ml; Sigma-Aldrich), DNase I (200 U/ml; Sigma-Aldrich) and trypsin (5 mg/ml; Invitrogen), and a non-enzymatic dissociation buffer (NEDB, Invitrogen). Briefly, mice were killed, and tumors were removed (avoiding skin, muscle and fat) into cold culture media and processed immediately. The tumors were minced into 1-3 mm fragments, which were then incubated with the dissociation solution (see above) for 30 min at 37° C. The tumor fragments were mixed up and down every 10 min using a […] micropipette with a tip cut to a diameter adapted to tissue fragment size. After each incubation period, the fragments were filtered through a […] nylon mesh cell strainer (BD Biosciences, San Diego, Calif., USA). The released cells were centrifuged at 1200 r.p.m. for 2 min and stored in cold CO2-independent medium with 30% FCS at […]. Fresh dissociation solution was added to the remaining tissue fragments for 30 min. Dissociation was stopped when no additional cells were released. The fragments were pushed through a sieve and all cells from all incubation periods were pooled and counted.
The dissociated cells were layered onto a double Ficoll gradient (Histopaque; Sigma-Aldrich; densities 1.077 and 1.119) and spun at 700 g for 30 min at room temperature. Cells removed from both interfaces were pooled and washed two times in CO2-independent medium and stored at 4° C. Debris and red blood cell elimination was improved with the dual-density gradient. […]

[4] = tested on: A2058 melanoma cells; assay: NO production (NOx) in cultured A2058 cells isolated from treated mice; format: cell-based, human; settings: 24-h cultured A2058 cells isolated from Pter-treated mice
[5] = tested on: MCF-7 breast adenocarcinoma; assay: In vivo growth of MCF-7 breast cancer xenografts; parameters: species or system human; settings: MCF-7, day 28
[6] = tested on: MelJuso melanoma; assay: In vivo growth of MelJuso melanoma xenografts in nu/nu mice; parameters: species or system human

SMILES: COc1cc(/C=C/c2ccc(O)cc2)cc(OC)c1 [Pter, trans-3,5-dimethoxy-4′-hydroxystilbene]
- cell growth or viability in vitro [1]: did not affect
- Tumor vol. [2]: 214 ± 83* mm^3
- CAT [3]: 0.3 ± 0.1 mU/10^6 cells
- GCL [3]: 57 ± 17 mU/10^6 cells
- GSH [3]: 8 ± 2 nmol/10^6 cells
- GSS [3]: 6.5 ± 1.7 mU/10^6 cells
- GSSG [3]: 0.05 ± 0.02 nmol/10^6 cells
- SOD1 [3]: 0.2 ± 0.1 U/10^6 cells
- SOD2 [3]: 0.02 ± 0.01 U/10^6 cells
- NO production (NOx=NO2^− plus NO3^−) [4]: 0.15±0.04 nmol/10^6 cells
- Tumor vol. [5]: 689 ± 153 mm^3
- inhibition of tumor growth ([6]; MelJuso, day 42, 30 mg Pter/kg i.v. every 48 h, vs controls): ~49%
- Tumor vol. ([6]; MelJuso-RFP, 35 days after inoculation, Pter 30 mg/kg i.v. every 48 h and/or CRC infusion 0.3 μg/h): 145 ± 35* mm^3
